Each structure is given as a SMILES string.

The target in one test is T1, active p38 alpha enzyme (Upstate Biotechnology) (Homo sapiens, UniProt Q16539).
T1 construct: purchased Upstate Biotechnology
T1 sequence (Q16539 whole entry): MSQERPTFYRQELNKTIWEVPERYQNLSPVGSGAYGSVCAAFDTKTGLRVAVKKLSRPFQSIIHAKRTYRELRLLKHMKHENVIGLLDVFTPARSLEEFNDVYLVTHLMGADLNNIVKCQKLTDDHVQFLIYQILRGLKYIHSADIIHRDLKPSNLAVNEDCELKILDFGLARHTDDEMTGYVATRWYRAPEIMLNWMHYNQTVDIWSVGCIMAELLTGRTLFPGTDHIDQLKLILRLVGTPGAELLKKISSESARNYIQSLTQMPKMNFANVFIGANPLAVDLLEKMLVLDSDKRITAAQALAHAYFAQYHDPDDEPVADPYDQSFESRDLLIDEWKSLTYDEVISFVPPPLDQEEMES
Briefly: p38α biochemical assay (ATP turnover, luminescent detection, Cambrex PKlight). To be noted: p38α biochemical assay, Table 1 Biological Activity. The method, boiled down: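 Measures total ATP turnover by luminescence after human p38α phosphorylates full MapkapK2 protein. Final ATP is 1.4 uM, and incubation runs 2 hours at 30C. The buffer includes 100 mM MgCl2, 4 mM CaCl2 and 1 mg/ml BSA.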
For `CC(C)NC(=O)c1csc(-c2c(-c3ccc(F)cc3)noc2CNC(=O)c2cc([N+](=O)[O-])ccc2Cl)n1` [Example 746], the IC50 is more than 1000 nM.

`Cc1ccc(O)c(C(=O)N2CCN(Cc3nc(-c4ccc(F)cc4)c(-c4nc(C(=O)NC(C)C)cs4)o3)CC2)c1` [Example 382]: the IC50 is not above 1000 nM. On the same count and under the same terms, the value for `CC(C)NC(=O)c1csc(-c2oc(CNC(=O)c3ccc(O)cc3O)nc2-c2ccc(F)cc2)n1` [Example 148] was not above 1000 nM; that for `CC(C)NC(=O)c1csc(-c2oc(CN3CCN(C(=O)Cc4ccc(O)c(Cl)c4)CC3)nc2-c2ccc(F)cc2)n1` [Example 477] was more than 1000 nM; that for `Cc1onc(-c2ccc(Cl)cc2)c1-c1ccn(C(=O)NCC(C)C)n1` [Example 15, 3-|3-(4-Chloro-phenyl)-5-methyl-isoxazol-4-yl|-pyrazole-1-carboxylic acid isobutyl-amide] was not above 1000 nM. Same read-out and setting: the value for `CC(C)NC(=O)c1csc(-c2c(-c3ccc(F)cc3)noc2CNC(=O)c2ccc(Cl)c(Br)c2)n1` [Example 796] was more than 1000 nM.

For `CC(C)NC(=O)c1csc(-c2oc(CNC(=O)c3ccccc3Cl)nc2-c2ccc(F)cc2)n1` [Example 151], the concentration for half-maximal inhibition (IC50) is not above 1000 nM.

In the case of `CC(C)NC(=O)c1csc(-c2oc(CN3CCN(C(=O)C4N=CC([N+](=O)[O-])=CC=C4Cl)CC3)nc2-c2ccc(F)cc2)n1` (centres unmarked) [Example 508], the IC50 is not above 1000 nM. In the case of `CC(C)NC(=O)c1csc(-c2c(-c3ccc(F)cc3)noc2CNC(=O)COc2ccccc2C=O)n1` [Example 687], the IC50 was more than 1000 nM. On the same count and under the same terms, the figure for `CC(C)NC(=O)c1csc(-c2oc(CNC(=O)c3ccncc3)nc2-c2ccc(F)cc2)n1` [Example 113] is not above 1000 nM; for `CC1=NN(c2ccc(C(=O)NCc3nc(-c4ccc(F)cc4)c(-c4nc(C(=O)NC(C)C)cs4)o3)cc2)C(=O)C1` [Example 301] it is not above 1000 nM. Compound `CC(C)NC(=O)c1csc(-c2oc(CNC(=O)c3csc4ccccc34)nc2-c2ccc(F)cc2)n1` [Example 206] came in with a half-inhibitory concentration (IC50) of more than 1000 nM.

With `Cc1cc(C(=O)NCc2nc(-c3ccc(F)cc3)c(-c3nc(C(=O)NC(C)C)cs3)o2)ccc1Br` [Example 292], the IC50 was more than 1000 nM. `Cc1ccc(O)c(C(=O)NCc2onc(-c3ccc(F)cc3)c2-c2nc(C(=O)NC(C)C)cs2)c1` [Example 620]: the IC50 is more than 1000 nM. Same read-out and setting: the figure for `CC(C)NC(=O)c1csc(-c2oc(CN3CCN(C(=O)c4cc(O)ccc4O)CC3)nc2-c2ccc(F)cc2)n1` [Example 383] is not above 1000 nM; for `CC(C)NC(=O)c1csc(-c2oc(CN3CCN(C(=O)c4ccccc4)CC3)nc2-c2ccc(F)cc2)n1` [Example 348] it is more than 1000 nM. The same measure, in the same setting: the figure for `CCCOc1ccc(C(=O)N2CCN(Cc3nc(-c4ccc(F)cc4)c(-c4nc(C(=O)NC(C)C)cs4)o3)CC2)cc1` [Example 455] is more than 1000 nM; for `Cc1nc(-c2ccc(F)cc2)c(-c2nc(C(=O)NCc3cccnc3)cs2)s1` [Example 55, 4′-(4-Fluoro-phenyl)-2′-methyl-|2,5′|bithiazolyl-4-carboxylic acid (pyridin-3-ylmethyl)-amide] it is not above 1000 nM; for `CC(C)NC(=O)c1csc(-c2oc(CNC(=O)c3ccc(Cl)cc3Cl)nc2-c2ccc(F)cc2)n1` [Example 252] it is not above 1000 nM.

`CC(C)NC(=O)c1csc(-c2oc(CNC(=O)C(C)O)nc2-c2ccc(F)cc2)n1` (centres unmarked) [Example 101]: the IC50 is not above 1000 nM. Still for that read-out and setting: the figure for `CC(C)NC(=O)c1csc(-c2oc(CNC(=O)Cc3ccc(O)c(Cl)c3)nc2-c2ccc(F)cc2)n1` [Example 240] is not above 1000 nM. The same measure, in the same setting: the figure for `CCCCCCCC(=O)N1CCN(Cc2nc(-c3ccc(F)cc3)c(-c3nc(C(=O)NC(C)C)cs3)o2)CC1` [Example 365] is more than 1000 nM; for `CC(C)NC(=O)c1csc(-c2oc(CN3CCN(C(=O)C(C(C)C)N(C)C(=O)OC(C)(C)C)CC3)nc2-c2ccc(F)cc2)n1` (centres unmarked) [Example 555] it is more than 1000 nM. Still for that read-out and setting: the figure for `CC(C)NC(=O)c1csc(-c2oc(CNC(=O)C(C)c3ccc(O)cc3)nc2-c2ccc(F)cc2)n1` (centres unmarked) [Example 183] is not above 1000 nM; for `COc1cc(OC)c(C(=O)N2CCN(Cc3nc(-c4ccc(F)cc4)c(-c4nc(C(=O)NC(C)C)cs4)o3)CC2)c(OC)c1` [Example 520] it is not above 1000 nM.

`CC(C)NC(=O)c1csc(-c2c(-c3ccc(F)cc3)noc2CNC(=O)c2ccccc2[N+](=O)[O-])n1` [Example 659] registered an IC50 of more than 1000 nM. `Cc1onc(-c2ccc(Cl)cc2)c1-c1ccn(C(=O)NC2CCCC2)n1` [Example 9, 3-|3-(4-Chloro-phenyl)-5-methyl-isoxazol-4-yl|-pyrazole-1-carboxylic acid cyclopentylamide] came in with an IC50 not above 1000 nM. The same measure, in the same setting: the figure for `CC(C)NC(=O)c1csc(-c2oc(CN3CCN(C(=O)c4ccc(Cl)cc4Cl)CC3)nc2-c2ccc(F)cc2)n1` [Example 489] is more than 1000 nM.

Still in this test, the particulars now being: p38α kinase; Table 1 Biological Activity.
In turn, `CC(C)NC(=O)c1csc(-c2oc(CN3CCC(Cc4ccccc4)CC3)nc2-c2ccc(F)cc2)n1` [Example 1248] showed a concentration for half-maximal inhibition (IC50) of more than 1000 nM. Same read-out and setting: the value for `O=C(NC1CCN(Cc2ccccc2)C1)c1csc(-c2c(-c3ccc(F)cc3)n[nH]c2C2CCNC2)n1` (centres unmarked) [Example 2147] was more than 1000 nM; that for `O=C(NCc1cccc(Cl)c1)c1csc(-c2c(-c3ccc(F)cc3)n[nH]c2C2CCNCC2)n1` [Example 2107] was more than 1000 nM; that for `Cc1cc(C)c(NCc2onc(-c3ccc(F)cc3)c2-c2nc(C(=O)NC(C)C)cs2)c(C)c1` [Example 1661] was more than 1000 nM. `O=C(NCCc1ccccc1Cl)c1csc(-c2c(-c3ccc(F)cc3)n[nH]c2C2CCNCC2)n1` [Example 2126]: the IC50 is more than 1000 nM. Same read-out and setting: the figure for `CC(C)NC(=O)c1csc(-c2c(-c3ccc(F)cc3)noc2CNCc2cccc(F)c2)n1` [Example 1434] is more than 1000 nM. The compound `Cc1nc(-c2ccc(F)cc2)c(-c2nc(C(=O)Nc3ccc(C)c(F)c3)cs2)s1` [Example 1976] displayed an IC50 of more than 1000 nM.

In turn, `O=C(NCc1ccc(Cl)c(Cl)c1)c1csc(-c2c(-c3ccc(F)cc3)n[nH]c2C2CCNCC2)n1` [Example 2145] came in with an IC50 of more than 1000 nM.

In turn, `Cc1nc(-c2ccc(F)cc2)c(-c2nc(C(=O)Nc3cccc(C(F)(F)F)c3)cs2)s1` [Example 2006] came in with an IC50 of more than 1000 nM. As to `O=C(NCCc1ccc(O)cc1)c1csc(-c2c(-c3ccc(F)cc3)n[nH]c2C2CCNCC2)n1` [Example 2099], the IC50 is more than 1000 nM. `Cc1nc(-c2ccc(F)cc2)c(-c2nc(C(=O)NCc3ccc(F)cc3)cs2)s1` [Example 1759] gave a concentration for half-maximal inhibition (IC50) not above 1000 nM. The same measure, in the same setting: the value for `C#CCN(Cc1ccc(Cl)cc1Cl)Cc1onc(-c2ccc(F)cc2)c1-c1nc(C(=O)NC(C)C)cs1` [Example 1616] was more than 1000 nM.

Compound `CC(C)NC(=O)c1csc(-c2c(-c3ccc(F)cc3)noc2CNCCCN2CCOCC2)n1` [Example 1468] displayed an IC50 of more than 1000 nM.

The compound `Cc1nc(-c2ccc(F)cc2)c(-c2nc(C(=O)N3CCC(N(C)C(=O)OC(C)(C)C)C3)cs2)s1` (centres unmarked) [Example 1930] registered an IC50 of more than 1000 nM.

`O=C(NCc1ccc(F)c(Cl)c1)c1csc(-c2c(-c3ccc(F)cc3)n[nH]c2C2CCNCC2)n1` [Example 2131]: the IC50 was more than 1000 nM. The same measure, in the same setting: the figure for `CCCCN(CC)Cc1onc(-c2ccc(F)cc2)c1-c1nc(C(=O)NC(C)C)cs1` [Example 1527] is more than 1000 nM. In turn, `CC(=O)c1ccc(NCc2nc(-c3ccc(F)cc3)c(-c3nc(C(=O)NC(C)C)cs3)o2)cc1` [Example 1336] had an IC50 of more than 1000 nM.

Take `CC(C)NC(=O)c1csc(-c2c(-c3ccc(F)cc3)noc2CN(CCC#N)Cc2ccccc2)n1` [Example 1381]: the IC50 is more than 1000 nM. The same measure, in the same setting: the value for `CC(C)NC(=O)c1csc(-c2c(-c3ccc(F)cc3)noc2CNC(C)Cc2ccncc2)n1` (centres unmarked) [Example 1452] was more than 1000 nM. In the case of `COc1cc(C(=O)N2CCC(c3[nH]nc(-c4ccc(F)cc4)c3-c3nc(C(=O)NC(C)C)cs3)CC2)cc(OC)c1OC` [Example 999], the IC50 was more than 1000 nM. For `Cc1nc(-c2ccc(F)cc2)c(-c2nc(C(=O)N3CCCC(CO)C3)cs2)s1` (centres unmarked) [Example 1861], the IC50 is more than 1000 nM. Still for that read-out and setting: the value for `CCOC(=O)C1CCN(Cc2onc(-c3ccc(F)cc3)c2-c2nc(C(=O)NC(C)C)cs2)CC1` [Example 1562] was more than 1000 nM; that for `CC(C)NC(=O)c1csc(-c2oc(CNc3ccc4ncsc4c3)nc2-c2ccc(F)cc2)n1` [Example 1350] was more than 1000 nM; that for `CC(C)NC(=O)c1csc(-c2c(-c3ccc(F)cc3)noc2CNCc2cccc(C(F)(F)F)c2)n1` [Example 1494] was more than 1000 nM. The same measure, in the same setting: the figure for `CC(C)NC(=O)c1csc(-c2c(-c3ccc(F)cc3)noc2CN2CCN(c3ccc([N+](=O)[O-])cc3)CC2)n1` [Example 1608] is more than 1000 nM; for `CCCC(C)NC(=O)c1csc(-c2sc(C)nc2-c2ccc(F)cc2)n1` (centres unmarked) [Example 1722] it is more than 1000 nM; for `CC(C)NC(=O)c1csc(-c2oc(CN3CCN(c4cccc(Cl)c4)CC3)nc2-c2ccc(F)cc2)n1` [Example 1273] it is more than 1000 nM.

`Cc1nc(-c2ccc(F)cc2)c(-c2nc(C(=O)Nc3cc(C(F)(F)F)ccc3F)cs2)s1` [Example 2014]: the IC50 is more than 1000 nM. For the compound `Cc1ccc(Cl)cc1N1CCN(Cc2onc(-c3ccc(F)cc3)c2-c2nc(C(=O)NC(C)C)cs2)CC1` [Example 1610], the half-maximal inhibitory concentration (IC50) is more than 1000 nM. On the same count and under the same terms, the value for `Cc1nc(-c2ccc(F)cc2)c(-c2nc(C(=O)N(CCCO)Cc3ccccn3)cs2)s1` [Example 1896] was more than 1000 nM. Same read-out and setting: the figure for `CC(C)NC(=O)c1csc(-c2oc(CNCC(C)c3ccccc3)nc2-c2ccc(F)cc2)n1` (centres unmarked) [Example 1118] is more than 1000 nM.

`CCNC(=O)c1csc(-c2sc(C)nc2-c2ccc(F)cc2)n1` [Example 1706] displayed an IC50 not above 1000 nM. Same read-out and setting: the value for `CC(C)NC(=O)c1csc(-c2c(-c3ccc(F)cc3)noc2CNc2cc(C(F)(F)F)cc(C(F)(F)F)c2)n1` [Example 1698] was more than 1000 nM; that for `O=C(NN1CCOCC1)c1csc(-c2c(-c3ccc(F)cc3)n[nH]c2C2CCNCC2)n1` [Example 2060] was more than 1000 nM.

One may read the IC50 as the concentration needed to halve the response being measured.
